# Experimental data from patent US8653120B2, “Method for treatment of chronic neuropathic pain” (Apkarian Technologies LLC, priority 2004, dated 2014).
# How the values were obtained:
# Format in all cases: in vivo
# [1] = test system: rat exhibiting mechanical sensitivity; test: Analgesia after infusion into different parts of the rat brain; details: 50 μg infusion, FIG. 5
# [2] = test system: Rats with mechanically injured paws; test: Rat model of neuropathic pain due to injury: tolerance to weight applied to the injured paw
# Experimental: Rats with mechanically injured paws were used as models of neuropathic pain. In the test, a weight is applied to the injured paw, and the pain response is assessed. […] Rats (groups or 8-10 rats per treatment) were treated with oral saline (control) or 3, 10 or 30 mg/kg of D-cycloserine for a period of two weeks. Pain was monitored from two days before the treatment commenced for a period of 35 days total. […] The open squares represent the control. The black squares represent 30 mg/kg dosage. The two intermediate lines are 3 (lighter) and 10 mg/kg (darker). […] The black squares are the retreated animals, the white squares are the controls and the intermediate colored squares are animals treated for the first time with 30 mg/kg. […] Thus, treatment of chronic pain requires a treatment regimen that extends over a period of time, for example at least one week, sufficient to provide a benefit to the individual being treated.
# [3] = test system: rats treated with cisplatin; test: Rat model of cisplatin-induced neuropathy: mechanical sensitivity
# Experimental: To model drug-induced pain, rats were treated with cisplatin (2 mg/kg), a common chemotherapy drug. As shown graphically in FIG. 4, after 14 days of treatment, the rats had developed mechanical sensitivity. […] In contrast, sensitivity was maintained in rats treated with a saline control (white bars). Thus, in rat models of cisplatin-induced neuropathy, pain behavior decreases 50% in two weeks in animals treated with cycloserine compared with animals treated with placebo.
# [4] = test system: Rats with mechanically injured paws; test: Rat model of neuropathic pain due to injury: test based on paw position; details: same test animals as FIGS. 2A-C; FIGS. 3A-C
# Experimental: Rats with mechanically injured paws were used as models of neuropathic pain. In the test, a weight is applied to the injured paw, and the pain response is assessed. […] Rats (groups or 8-10 rats per treatment) were treated with oral saline (control) or 3, 10 or 30 mg/kg of D-cycloserine for a period of two weeks. Pain was monitored from two days before the treatment commenced for a period of 35 days total. FIGS. 3A-C show results for the same test animals as FIGS. 2A-C, except using a test based on paw position as opposed to tolerance to applied weight. In this case, lower numbers reflect lesser pain.
# [5] = 30 mg/kg, longer treatment period, FIG. 2C
compound,measurement,setting,value
N[C@@H]1CON=C1O [D-cycloserine],analgesia after infusion into medial prefrontal cortex,[1]; vs saline infusion,result in analgesia
same,analgesia after infusion into bilateral amygdala,[1],result in analgesia
same,analgesia after infusion into visual cortex,[1],Only medial prefrontal cortex and amygdala infusions result in analgesia
same,analgesic effectiveness on re-treatment vs first treatment,"[2]; 30 mg/kg re-treatment starting 1 day after end of the 35 day test, FIG. 2B",about twice as great
same,post-treatment duration of analgesia after longer treatment,[2]; [5],significant analgesic affect being observed 30 days after cessation of treatment
same,time course of analgesic effect with longer treatment,[2]; [5],"analgesic effect increases with treatment for a period of three weeks, after which a plateau is reached"
same,analgesic effect of acute administration on neuropathic behavior,[2]; acute oral or intrathecal administration,only minimal analgesic effects
same,post-treatment analgesia,"[2]; after end of two-week oral treatment, FIG. 2A",long-lasting analgesia
same,day of return to initial neuropathy levels,"[2]; after two-week oral treatment, FIG. 2A",35 days
same,analgesic response during treatment (tolerated weight on injured paw),"[2]; oral 3, 10 or 30 mg/kg for two weeks, vs saline, FIG. 2A",generally dose-dependent response
same,decrease of pain behavior compared with placebo,"[3]; cisplatin-induced neuropathy, two weeks of treatment",50%
same,effect on cisplatin-induced mechanical sensitivity,"[3]; oral 30 mg/kg, two treatments per day, 14 days, with cisplatin 2 mg/kg, FIG. 4",partial reversal of the mechanical sensitivity
same,pain measured by paw position (lower numbers reflect lesser pain),[4],indicates the effectiveness of the D-cycloserine
